{
  "source": "patent US7473434B2",
  "about": "“Maca extract and cosmetic composition containing such an extract” (Laboratoires Expanscience, priority 2003, dated 2009)",
  "test_system": "Jurkat human lymphoid cells",
  "test": "Lipid peroxide (LP) quantity in cells with or without UV irradiation, fluorescent probe, flow cytometry",
  "assay_type": "cell-based",
  "conditions": "for Fluorescence intensity Mean: mean of triplicate; for % of control: relative LP quantity; for 1/fluorescence intensity: relative quantity of lipid peroxides",
  "excerpt": "The purpose of the study is to evaluate the effects of the maca peptide extract on the lipid peroxidation rate (LP) in human cells (Jurkat) exposed or not to UVA+UVB radiation. LP measurement was made with a specific fluorescent probe by flow cytometry. This method has the advantage of showing great sensitivity when measuring the fluorescence of individual cells, over a large number of cells (10 000 cells analysed per sample). The cells used are Jurkat human lymphoid cells distributed in 24-well plates with 8.10^5 cells/well. The culture medium is RPMI 1640 (Invitrogen 31870-025) at […] and in the presence of 5% CO2. The test medium is MEM without phenol red and without calf serum (Polylabo 5503401). Tests are conducted with the peptide extract obtained in example 1, with twofold dilution i.e. in the form of an extract with 5% dry matter. A solution S1 containing 2% of this extract is prepared in the test medium. The control used is butyl hydroxyanisol (BHA Sigma ref. B 1253) in a […] solution in absolute ethanol. Tests are conducted with a solution S2 containing 100 μM BHA prepared in the test medium. […] Rad. Biol. Med., 1997, 22, 13-100) in a 5 μM solution in absolute ethanol. The tests are conducted using a 1 μM probe solution S3 prepared in the test medium. The human cells are pre-incubated in the culture medium, then washed in the test medium. They are subsequently incubated in the presence of the S1 solution of the peptide extract or the S2 control solution. The probe solution S3 is added to each batch for LP assay. After 45 minutes incubation, the fluorescent probe is removed by washing in the test medium. Part of the batches are then irradiated with […], another part without irradiation used as control. After 20 minutes incubation the fluorescence parameters are measured by flow cytometry. Determination of the relative quantity of lipid peroxides (LP) is based on measurement of the reduction in fluorescence of the probe integrated in the cell membranes. An increase in the fluorescence signal translates a reduction in the basal rate of membrane lipid peroxides. The studies are conducted in triplicate. The results obtained are expressed as the value of fluorescence intensity, and percentages with respect to the control are calculated using the values of fluorescence intensity.",
  "note": "Several values for one entry are separate records, joined by “and”; a condition that tells them apart may be missing. Equal entries are not always repeated.",
  "data": [
    {"smiles": "COc1ccc(O)c(C(C)(C)C)c1", "note": "[BHA, butyl hydroxyanisol]", "values": [
      {"measurement": "Fluorescence intensity Mean", "setting": "with UV irradiation, BHA 100 μM, extract 2% solution", "value": 374.67},
      {"measurement": "% of control", "setting": "with UV irradiation, Test +UV = 100", "value": 50, "unit": "%"},
      {"measurement": "1/fluorescence intensity", "setting": "with UV irradiation", "value": 0.00267},
      {"measurement": "Fluorescence intensity", "setting": "with UV irradiation, single replicate values, BHA 100 μM, extract 2% solution", "value": "362.40 and 368.20 and 393.42"},
      {"measurement": "Fluorescence intensity Mean", "setting": "without UV, BHA 100 μM, 2% MC101", "value": 753},
      {"measurement": "% of control", "setting": "without UV, Control -UV = 100", "value": 67, "unit": "%"},
      {"measurement": "1/fluorescence intensity", "setting": "without UV", "value": 0.00133},
      {"measurement": "Fluorescence intensity n = 10000 cells", "setting": "without UV, single replicate values, BHA 100 μM, 2% MC101", "value": "741.05 and 745.64 and 770.93"}
    ]}
  ]
}
